Series [1] deals with recombinant SARS-CoV-2 M^pro (Severe acute respiratory syndrome coronavirus 2 (2019-nCoV) (SARS-CoV-2), UniProt P0DTD1). Briefly: Inhibition of SARS-CoV-2 M^pro enzyme activity (fluorescent substrate assay). Type of series: biochemical. Particulars: inhibition of SARS-CoV-2 M^pro enzyme activity; values in nM; read-out: IC50.
Series [2] can be described thus: in vivo. The conditions noted are these: male, Sprague-Dawley, rat, po, 10 mg/kg.
Series [3] is described as follows: Cytotoxic assay against Vero E6 cells (MTT, 72 h). Type of series: cell-based. The conditions noted are these: African green monkey. As to the method:
The cytotoxicity assessment of compounds was performed against Vero E6 cells. The specific experimental procedures: Vero E6 cells were seeded into a 96-well plate at a cell density of 2×10^4 cells/well, with 100 μL/well, and then incubated overnight at 37° C. in a 5% CO2 incubator. The next day, 100 μL of drug-containing medium was added to each well. The compound was diluted in a 2-fold serial dilution with a top concentration of […], for a total of 6 gradients. Three repeated wells were set for each concentration, and negative controls and blank controls without drugs were included for each experiment. […] All experimental data were analyzed using GraphPad Prism software.

Broadly, the IC50 is the concentration at which inhibition is half-maximal. Usually AUC(0-inf) stands for the area under the concentration-time curve extrapolated to infinity. For orientation: AUC(0-t) means exposure summed from dosing to a finite time, without extrapolation to infinity. By Cmax is commonly meant the peak of the concentration-time curve. Broadly, the MRT inf is the average time that molecules of a dose stay in the body. For orientation: Tmax means the time at which the peak concentration occurs. A word on the half-life: it is how long it takes for the measured level to halve. For `O=C(CCC1CCC(F)(F)CC1)NCC(=O)N[C@H](Cc1ccccc1)C(=O)C(=O)NCc1ccccn1` [Compound 153], in series [1], the IC50 was 12 ± 0.6 nM. Besides, in series [2], the AUC(0-inf) turned out to be 26000 ± 265 ng·h/mL, the AUC(0-t) came out at 23500 ± 676 ng·h/mL, the maximum concentration (Cmax) came to 1980 ± 97.7 ng/mL and the MRT inf is 7.08 ± 0.25 h. Moreover, in series [2], the Tmax was 100 ± 34.8 min and the half-life was 428 ± 27.6 min.

For orientation: CC50 means the concentration that lowers cell viability or growth by half. Regarding `CC(C)(NC(=O)C1CCC(F)(F)CC1)C(=O)N[C@H](Cc1ccccc1)C(=O)C(=O)NCc1ccccn1` [Compound 172], in series [1], the IC50 worked out at 14.9 ± 0.7 nM. In series [3], the CC50 at 72 h came to 341 µM.

Regarding `CC(C)(NC(=O)[C@@H]1C[C@@H]2[C@H](C1)C2(F)F)C(=O)N[C@H](Cc1ccccc1)C(=O)C(=O)NCc1ccccn1` [Compound 174], the IC50 in series [1] is 13.2 ± 1 nM. The CC50 at 72 h in series [3] is > 500 µM.

Turning to `CC(C)(NC(=O)c1cc(OC(F)(F)F)ccc1F)C(=O)N[C@H](Cc1ccccc1)C(=O)C(=O)NCc1ccccn1` [Compound 177], the IC50 in series [1] is 10.5 ± 0.2 nM. Also, in series [3], the CC50 at 72 h turned out to be 157 µM.

As to `O=C(NCc1ccccn1)C(=O)[C@@H](Cc1ccccc1)NC(=O)[C@H]1COCCN1C(=O)C1CCC(F)(F)CC1` [Compound 288], in series [1], the IC50 is 14.6 ± 0.4 nM. Moreover, in series [2], the AUC(0-inf) stood at 3500 ± 1250 ng·h/mL, the AUC(0-t) came to 3490 ± 1250 ng·h/mL, the Cmax is 1140 ± 207 ng/mL and the MRT inf stood at 3.59 ± 0.11 h. For the same compound, in series [2], the Tmax came out at 45 ± 25.8 min and the half-life is 182 ± 21.6 min.

In the case of `O=C(NCc1ccccn1)C(=O)[C@@H](Cc1ccccc1)NC(=O)[C@H]1COCCN1C(=O)CC1CCC(F)(F)CC1` [Compound 289], the IC50 in series [1] came to 10.6 ± 0.1 nM. In series [2], this compound registered an AUC(0-inf) of 3250 ± 462 ng·h/mL, an AUC(0-t) of 3240 ± 460 ng·h/mL, a Cmax of 1040 ± 349 ng/mL and an MRT inf of 2.98 ± 0.33 h. Further, in series [2], the Tmax worked out at 30 min and the half-life is 197 ± 11.4 min. Moreover, the CC50 at 72 h in series [3] is > 500 µM.

Turning to `O=C(NCc1ccccn1)C(=O)[C@@H](Cc1ccccc1)NC(=O)[C@H]1COCCN1C(=O)[C@H](NC(=O)c1cnccn1)C1CCCCC1` [Compound 290], the IC50 in series [1] came out at 11.3 ± 0.2 nM. In series [2], this compound yielded an AUC(0-inf) of 3120 ± 894 ng·h/mL, an AUC(0-t) of 3110 ± 894 ng·h/mL, a Cmax of 722 ± 235 ng/mL and an MRT inf of 4.16 ± 0.3 h. For the same compound, in series [2], the Tmax was 30 min and the half-life is 160 ± 6.6 min.

For the compound `C[C@@H](NC(=O)C1CCC(F)(F)CC1)C(=O)N[C@H](Cc1ccccc1)C(=O)C(=O)NCc1ccccn1` [Compound 317], in series [1], the IC50 was 16 ± 0.3 nM. Besides, the CC50 at 72 h in series [3] was > 500 µM.

With `CC(C)(C(=O)NCC1CCC(F)(F)CC1)C(=O)N[C@H](Cc1ccccc1)C(=O)C(=O)NCc1ccccn1` [Compound 324, (R)—N^1-((4,4-difluorocyclohexyl)methyl)-N^3-(3,4-dioxo-1-phenyl-4-((pyridin-2-ylmethyl)amino)butan-2-yl)-2,2-dimethylmalonamide], the IC50 in series [1] is 9.6 ± 0.1 nM. For the same compound, in series [3], the CC50 at 72 h is > 500 µM.

As for `O=C(CNC(=O)C1CC12CCC(F)(F)CC2)N[C@H](Cc1ccccc1)C(=O)C(=O)NCc1ccccn1` (some centres unmarked) [Compound 333], the 50% inhibitory concentration (IC50) in series [1] is 13.4 ± 0.2 nM. Moreover, in series [2], the AUC(0-inf) amounted to 22400 ± 10800 ng·h/mL, the AUC(0-t) was found to be 18700 ± 9060 ng·h/mL, the Cmax stood at 1590 ± 573 ng/mL and the MRT inf is 7.47 ± 0.38 h. Further, in series [2], the Tmax is 55.2 ± 57 min and the half-life is 584 ± 22.8 min.

As for “(R)-3-((R)-2-(benzyloxy)propionamido)-N-((5-chloropyridin-2-yl)methyl)-4-(4-fluorophenyl)-2-oxobutyramide [Compound 52]”, the IC50 in series [1] turned out to be 44.2 ± 3.4 nM.

These data come from US20250064789A1, “KETOAMIDE DERIVATIVES AND PHARMACEUTICAL USES THEREOF” (priority 2022, published 2025).
